Assay results as given in patent US9181219B2, “Compounds of modulating TRPV3 function” (Hydra Biosciences, Inc., priority 2006, dated 2015).
Read-outs that look alike come from different tables or passages of the source.

How the values were obtained:
Format in all cases: cell-based
[1] = target: TRPV3 (Homo sapiens (Human), UniProt Q8NET8); assay: Whole-cell patch clamp of TRPV3 mediated inward current; settings: HEK293/TREx TRPV3 cells, approximate values
Excerpt: Whole-cell patch clamp experiments permit the detection of currents through the TRPV3 channel in the cell line described above. A glass electrode is brought into contact with a single cell and the membrane is then ruptured, permitting control of the voltage of the cell membrane and measurement of currents flowing across the membrane using the amplifier attached to the electrode. A perfusion system permits control of the extracellular solution, including the addition of blockers and activators of the current. The current can be activated by heating this solution to 28° C. or warmer or by addition of 20 μM 2-APB to the solution.
TRPV3 cells were induced 20-48 hours, removed from growth plates, and replated at low density (to attain good single-cell physical separation) on glass coverslips for measurement. In some cases, cells were grown in low density overnight on glass coverslips. Patch clamp recordings were made in the whole-cell mode with a holding potential of −40 mV. Every 5 seconds, a voltage ramp was applied from −120 to +100 mV, 400 ms in duration. Currents elicited were quantified at −80 mV and +80 mV. The internal solution consisted of 140 mM cesium aspartate, 10 mM EGTA, 2.27 mM MgCl2, 1.91 mM CaCl2 and 10 mM HEPES, pH to 7.2 with KOH; with 50 nM calculated free Ca^2+. External solution was Ringer's solution described above. Upon addition of 2-APB or upon heating of the extraceullar solution as described above, TRPV3 current was induced only in TRPV3-expressing cells and not in parental HEK293 TREx cells. […] Removal of the stimulus caused most of the current to go away, and inhibitor addition could still inhibit this current.
The data includes approximate IC50 values for inhibition of TRPV3 mediated inward current as assessed by patch-clamp.

[2] = target: NaV1.2 (Homo sapiens (Human), UniProt Q99250); assay: Qpatch selectivity, NaV1.2 inward current; settings: tested at concentrations up to 30 μM, IC50 estimated
NaV1.2, sequence (Q99250 whole entry): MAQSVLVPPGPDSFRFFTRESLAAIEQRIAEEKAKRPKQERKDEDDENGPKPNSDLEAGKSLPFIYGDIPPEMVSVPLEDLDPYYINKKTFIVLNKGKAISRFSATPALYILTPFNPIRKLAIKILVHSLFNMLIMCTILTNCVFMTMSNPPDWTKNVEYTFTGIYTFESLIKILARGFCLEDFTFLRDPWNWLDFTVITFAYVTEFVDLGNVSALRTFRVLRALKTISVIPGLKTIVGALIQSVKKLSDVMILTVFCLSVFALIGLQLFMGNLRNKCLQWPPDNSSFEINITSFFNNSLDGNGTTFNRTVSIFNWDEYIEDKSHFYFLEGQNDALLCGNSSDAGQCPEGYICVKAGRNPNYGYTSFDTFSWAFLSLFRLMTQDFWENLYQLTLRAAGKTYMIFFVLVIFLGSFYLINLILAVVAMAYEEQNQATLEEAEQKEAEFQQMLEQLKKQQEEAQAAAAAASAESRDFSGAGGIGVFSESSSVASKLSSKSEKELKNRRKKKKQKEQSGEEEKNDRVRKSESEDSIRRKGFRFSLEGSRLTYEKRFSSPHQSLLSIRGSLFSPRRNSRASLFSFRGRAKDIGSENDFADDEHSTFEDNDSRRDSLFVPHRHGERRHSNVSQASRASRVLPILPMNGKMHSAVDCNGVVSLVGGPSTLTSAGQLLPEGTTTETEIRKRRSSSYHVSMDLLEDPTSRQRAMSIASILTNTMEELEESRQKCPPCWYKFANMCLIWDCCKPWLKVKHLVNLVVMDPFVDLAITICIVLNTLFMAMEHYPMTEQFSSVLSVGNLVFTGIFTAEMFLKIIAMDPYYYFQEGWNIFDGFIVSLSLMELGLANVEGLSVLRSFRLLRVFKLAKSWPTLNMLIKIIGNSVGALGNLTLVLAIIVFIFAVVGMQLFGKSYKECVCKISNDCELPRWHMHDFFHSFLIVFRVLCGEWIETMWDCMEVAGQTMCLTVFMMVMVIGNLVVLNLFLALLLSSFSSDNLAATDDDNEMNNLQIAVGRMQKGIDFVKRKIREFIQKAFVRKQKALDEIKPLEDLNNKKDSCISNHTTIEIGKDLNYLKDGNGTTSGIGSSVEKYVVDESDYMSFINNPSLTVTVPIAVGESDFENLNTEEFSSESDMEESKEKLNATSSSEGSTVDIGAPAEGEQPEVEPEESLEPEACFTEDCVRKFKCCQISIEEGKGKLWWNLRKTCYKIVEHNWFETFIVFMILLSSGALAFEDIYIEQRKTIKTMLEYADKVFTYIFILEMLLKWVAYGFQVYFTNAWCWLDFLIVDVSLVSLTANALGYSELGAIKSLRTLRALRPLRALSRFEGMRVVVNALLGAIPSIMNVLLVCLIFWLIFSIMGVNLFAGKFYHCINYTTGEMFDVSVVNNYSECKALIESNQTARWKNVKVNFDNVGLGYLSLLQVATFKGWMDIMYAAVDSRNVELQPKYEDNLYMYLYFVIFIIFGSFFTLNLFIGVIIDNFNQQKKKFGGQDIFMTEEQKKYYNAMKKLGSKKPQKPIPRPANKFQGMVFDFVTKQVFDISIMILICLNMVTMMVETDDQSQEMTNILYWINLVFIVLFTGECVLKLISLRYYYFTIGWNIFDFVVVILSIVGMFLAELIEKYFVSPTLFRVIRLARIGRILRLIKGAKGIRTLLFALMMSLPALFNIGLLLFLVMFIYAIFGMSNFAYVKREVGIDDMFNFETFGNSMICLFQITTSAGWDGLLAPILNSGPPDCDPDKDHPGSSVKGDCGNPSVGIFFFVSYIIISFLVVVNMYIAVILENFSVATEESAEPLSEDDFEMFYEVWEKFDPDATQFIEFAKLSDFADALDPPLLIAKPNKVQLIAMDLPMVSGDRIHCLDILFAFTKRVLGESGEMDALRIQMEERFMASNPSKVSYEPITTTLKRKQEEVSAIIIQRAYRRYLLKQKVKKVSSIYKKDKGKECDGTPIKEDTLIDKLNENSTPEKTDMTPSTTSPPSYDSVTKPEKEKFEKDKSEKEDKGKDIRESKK
Excerpt: (§1) To determine whether compounds were selective for TRPV3 inhibition over inhibition of other ion channel types, the human ERG (hERG), NaV1.2, and TRPV1 (hTRPV1) channels and the rat TRPV6 (rTRPV6) channel were also stably transfected and expressed or induced to express in mammalian cell lines. The methods for measuring currents from these channels are well-established and have been described in numerous publications (See, Weerapura et al., 2002, J Physiology 540: 15-27; Rush et al., 2005, J Physiology 564: 808-815; Caterina et al., 1997, Nature 389: 816-824; Hoenderhop et al., 2001, J Physiology 537: 747-761; Clapham et al., 2003, Pharmacol Rev 55: 591-596). Compounds of interest were tested against these channels at concentrations up to 30 μM, and the resulting data were used to estimate IC50.

[3] = target: TRPV1 (hTRPV1) (Homo sapiens (Human), UniProt Q8NER1); assay: Patch clamp selectivity, TRPV1 inward current; settings: tested at concentrations up to 30 μM, IC50 estimated
TRPV1 (hTRPV1), sequence (Q8NER1 whole entry): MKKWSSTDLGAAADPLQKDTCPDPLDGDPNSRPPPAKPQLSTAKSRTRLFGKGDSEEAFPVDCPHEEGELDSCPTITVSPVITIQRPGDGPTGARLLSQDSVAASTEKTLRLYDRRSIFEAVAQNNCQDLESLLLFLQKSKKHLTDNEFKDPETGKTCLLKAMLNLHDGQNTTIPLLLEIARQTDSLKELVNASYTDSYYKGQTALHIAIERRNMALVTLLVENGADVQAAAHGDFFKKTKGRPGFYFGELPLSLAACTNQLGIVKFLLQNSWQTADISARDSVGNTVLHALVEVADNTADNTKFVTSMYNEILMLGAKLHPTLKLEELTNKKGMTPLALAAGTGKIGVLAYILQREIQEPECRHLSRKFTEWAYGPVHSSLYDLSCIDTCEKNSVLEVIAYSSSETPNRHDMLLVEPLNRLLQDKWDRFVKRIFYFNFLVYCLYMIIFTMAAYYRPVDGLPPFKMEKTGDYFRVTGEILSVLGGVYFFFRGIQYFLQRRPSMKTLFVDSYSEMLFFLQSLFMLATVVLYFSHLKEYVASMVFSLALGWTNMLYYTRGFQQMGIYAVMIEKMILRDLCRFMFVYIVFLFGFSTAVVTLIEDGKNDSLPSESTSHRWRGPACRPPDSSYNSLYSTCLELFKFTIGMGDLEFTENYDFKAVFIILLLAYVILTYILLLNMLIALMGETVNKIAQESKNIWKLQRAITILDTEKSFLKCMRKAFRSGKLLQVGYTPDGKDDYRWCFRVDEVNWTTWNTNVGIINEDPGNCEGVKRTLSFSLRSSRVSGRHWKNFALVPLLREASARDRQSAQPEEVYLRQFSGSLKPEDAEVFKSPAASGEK
Excerpt: as §1

[4] = target: hERG (Homo sapiens (Human), UniProt Q12809); assay: Patch clamp selectivity, hERG current; settings: tested at concentrations up to 30 μM, IC50 estimated
hERG, sequence (Q12809 whole entry): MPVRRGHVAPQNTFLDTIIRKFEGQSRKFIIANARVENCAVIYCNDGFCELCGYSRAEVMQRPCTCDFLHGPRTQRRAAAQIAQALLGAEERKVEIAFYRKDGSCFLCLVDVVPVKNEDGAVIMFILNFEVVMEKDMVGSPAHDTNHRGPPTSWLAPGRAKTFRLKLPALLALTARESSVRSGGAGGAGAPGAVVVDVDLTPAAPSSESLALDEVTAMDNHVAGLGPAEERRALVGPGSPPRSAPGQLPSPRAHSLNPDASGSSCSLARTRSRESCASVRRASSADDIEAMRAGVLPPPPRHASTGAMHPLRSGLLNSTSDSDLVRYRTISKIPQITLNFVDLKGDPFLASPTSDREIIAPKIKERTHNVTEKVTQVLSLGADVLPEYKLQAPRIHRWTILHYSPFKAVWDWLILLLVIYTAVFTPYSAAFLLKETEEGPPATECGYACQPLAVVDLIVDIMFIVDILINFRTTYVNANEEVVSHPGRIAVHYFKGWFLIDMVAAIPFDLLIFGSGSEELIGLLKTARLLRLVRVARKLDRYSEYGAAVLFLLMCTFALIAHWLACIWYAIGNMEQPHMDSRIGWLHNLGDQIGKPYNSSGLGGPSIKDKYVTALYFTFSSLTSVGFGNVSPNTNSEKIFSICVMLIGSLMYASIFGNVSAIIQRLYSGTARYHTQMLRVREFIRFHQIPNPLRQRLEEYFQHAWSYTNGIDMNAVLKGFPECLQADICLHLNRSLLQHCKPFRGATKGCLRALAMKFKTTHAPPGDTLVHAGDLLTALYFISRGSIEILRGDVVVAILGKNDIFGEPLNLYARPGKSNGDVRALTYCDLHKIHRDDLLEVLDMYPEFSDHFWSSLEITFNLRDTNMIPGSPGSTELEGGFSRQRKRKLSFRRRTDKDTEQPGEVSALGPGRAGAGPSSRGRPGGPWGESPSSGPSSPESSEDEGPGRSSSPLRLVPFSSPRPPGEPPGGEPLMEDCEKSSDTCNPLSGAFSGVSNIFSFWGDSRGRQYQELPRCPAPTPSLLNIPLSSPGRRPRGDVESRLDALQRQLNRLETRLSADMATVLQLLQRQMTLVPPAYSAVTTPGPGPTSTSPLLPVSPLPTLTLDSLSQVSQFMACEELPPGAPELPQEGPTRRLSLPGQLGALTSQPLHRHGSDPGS
Excerpt: as §1

[5] = Phase 1 inward current, read-out: TRPV3 Phase 1 IC50 inward
[6] = Phase 2 inward current, read-out: TRPV3 Phase 2 IC50 inward

TRPV3, sequence (Q8NET8 whole entry, species assumed, the tested form may be a part): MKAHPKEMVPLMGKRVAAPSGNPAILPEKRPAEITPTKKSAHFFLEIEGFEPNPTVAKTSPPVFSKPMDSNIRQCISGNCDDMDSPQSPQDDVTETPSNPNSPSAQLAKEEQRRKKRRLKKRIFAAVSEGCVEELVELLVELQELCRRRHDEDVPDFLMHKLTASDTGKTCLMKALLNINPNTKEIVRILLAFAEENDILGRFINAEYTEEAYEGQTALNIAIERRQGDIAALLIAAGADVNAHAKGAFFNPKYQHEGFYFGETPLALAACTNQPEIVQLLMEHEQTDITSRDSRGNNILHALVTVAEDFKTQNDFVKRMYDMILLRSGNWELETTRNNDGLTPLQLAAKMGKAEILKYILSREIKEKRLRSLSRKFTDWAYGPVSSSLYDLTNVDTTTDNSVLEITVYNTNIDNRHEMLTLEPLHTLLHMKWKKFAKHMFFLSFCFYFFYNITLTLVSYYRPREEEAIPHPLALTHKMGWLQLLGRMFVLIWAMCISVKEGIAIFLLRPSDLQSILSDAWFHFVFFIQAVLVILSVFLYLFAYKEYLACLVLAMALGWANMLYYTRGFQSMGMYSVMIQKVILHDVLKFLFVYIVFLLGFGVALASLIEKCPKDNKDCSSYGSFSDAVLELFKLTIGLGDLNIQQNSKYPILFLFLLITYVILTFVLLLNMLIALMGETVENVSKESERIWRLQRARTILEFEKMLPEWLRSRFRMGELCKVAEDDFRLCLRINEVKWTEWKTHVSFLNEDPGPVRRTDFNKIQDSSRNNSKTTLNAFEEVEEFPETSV

Row | SMILES | IC50 [1, 5] | IC50 [1, 6] | IC50 [2] | IC50 [3] | IC50 [4]
1 | O=C(CSc1ccc(C(F)(F)F)cn1)N1CCCc2ccccc21 | ≤ 5 µM | ≤ 1 µM | ≥ 30 µM |  | 
2 | Cc1cccc2c1N(C(=O)CSc1ccc(C#N)cn1)CCC2 | ≤ 10 µM | ≤ 5 µM |  |  | 
3 | Cc1cccc2c1N(C(=O)CSc1ncc(C(F)(F)F)cc1F)CCC2 | ≤ 0.2 µM | ≤ 0.2 µM |  |  | 
4 | Cc1cccc2c1N(C(=O)CSc1ccc(Br)cn1)CCC2 | ≤ 0.5 µM | ≤ 0.5 µM |  |  | 
5 | COC(=O)c1cnc(SCC(=O)N2CCCc3cccc(C)c32)c(Cl)c1 | ≤ 5 µM | ≤ 5 µM |  |  | 
6 | Cc1cccc2c1N(C(=O)CSc1ncc(Cl)cc1Cl)CCC2 | ≤ 0.2 µM | ≤ 0.2 µM |  |  | 
7 | Cc1cccc2c1N(C(=O)CSc1cc(C#N)ccn1)CCC2 | ≤ 10 µM | ≤ 10 µM |  |  | 
8 | Cc1cccc2c1N(C(=O)CSc1ncccc1C#N)CCC2 | ≤ 1 µM | ≤ 0.5 µM |  |  | 
9 | COc1cccc2c1N(C(=O)CSc1ncccc1Cl)CCC2 | ≤ 0.5 µM | ≤ 0.5 µM |  |  | 
10 | Cc1ccnc(SCC(=O)N2CCCc3cccc(C)c32)c1C | ≤ 5 µM | ≤ 1 µM |  |  | 
11 | Cc1cnc(SCC(=O)N2CCCc3cccc(C)c32)cc1C | ≤ 0.2 µM | ≤ 0.2 µM |  |  | 
12 | CCc1cc(C(F)(F)F)cnc1SCC(=O)N1CCCc2cccc(C)c21 | ≤ 5 µM | ≤ 5 µM |  |  | 
13 | Cc1cccc2c1N(C(=O)CSc1ccc(C(F)(F)F)cn1)CCC2 [Compound 6, 2-(5-trifluoromethyl-pyridine-2-ylsulfanyl)-1-(8-methyl-3,4-dihydro-2H-quinolin-1-yl)-ethanone] | ≤ 0.5 µM | ≤ 0.2 µM | ≥ 30 µM | ≥ 20 µM | ≥ 30 µM
14 | Cc1cccc2c1N(C(=O)CSc1ncccc1C(F)(F)F)CCC2 [Compound 8, 1-(8-methyl-3,4-dihydro-2H-quinolin-1-yl)-2-(3-trifluoromethyl-pyridin-2-ylsulfanyl)-ethanone] | ≤ 1 µM | ≤ 5 µM |  |  | 
15 | Cc1cccc2c1N(C(=O)CSc1ncc(C(F)(F)F)cc1Cl)CCC2 [Compound 10, 2-(3-chloro-5-trifluoromethyl-pyridine-2-ylsulfanyl)-1-(8-methyl-3,4-dihydro-2H-quinolin-1-yl)-ethanone] | ≤ 0.2 µM | ≤ 0.5 µM |  |  | 
16 | Cc1cccc2c1N(C(=O)CSc1ccccn1)CCC2 [Compound 12, 1-(8-methyl-3,4-dihydro-2H-quinolin-1-yl)-2-(pyridine-2-ylsulfanyl)-ethanone] | ≤ 5 µM | ≤ 10 µM |  |  | 
17 | Cc1cccc2c1N(C(=O)CSc1ccc(Cl)cn1)CCC2 [Compound 16, 2-(5-Chloro-pyridin-2-ylsulfanyl)-1-(8-methyl-3,4-dihydro-2H-quinolin-1-yl)-ethanone] | ≤ 0.5 µM | ≤ 0.5 µM |  |  | ≥ 5 µM
18 | Cc1cccc2c1N(C(=O)CSc1ncccc1Cl)CCC2 [Compound 20, 2-(3-chloro-pyridin-2-ylsulfanyl)-1-(8-methyl-3,4-dihydro-2H-quinolin-1-yl)-ethanone] | ≤ 0.2 µM | ≤ 1 µM | ≥ 30 µM |  | ≥ 10 µM
19 | O=C(CSc1ccc(Cl)cn1)N1CCCc2ccccc21 [Compound 21, 2-(5-chloro-pyridine-2-ylthio)-1-(3,4-dihydroquinolin-1-(2H)-yl)-ethanone] | ≤ 5 µM | ≤ 5 µM |  |  | 
20 | Cc1ccc(SCC(=O)N2CCCc3cccc(C)c32)nc1 [Compound 24, 1-(8-Methyl-3,4-dihydro-2H-quinolin-1-yl)-2-(5-methyl-pyridin-2-ylsulfanyl)-ethanone] | ≤ 5 µM | ≤ 10 µM |  |  | 
